18 compounds from patent publication US12667572B2, “Tricyclic compounds useful in the treatment of cancer, autoimmune and inflammatory disorders” (SCHRÖDINGER, INC., priority 2021, dated 2026) can be followed below.

This test has as its target T1, full-length MALT1 protein His-MALT1(1-824) (Homo sapiens, UniProt Q9UDY8).
T1 construct: full-length MALT1 protein His-MALT1(1-824); His (N); made in house; host or cells: baculovirus-infected insect cells
T1 sequence (Q9UDY8 1-824): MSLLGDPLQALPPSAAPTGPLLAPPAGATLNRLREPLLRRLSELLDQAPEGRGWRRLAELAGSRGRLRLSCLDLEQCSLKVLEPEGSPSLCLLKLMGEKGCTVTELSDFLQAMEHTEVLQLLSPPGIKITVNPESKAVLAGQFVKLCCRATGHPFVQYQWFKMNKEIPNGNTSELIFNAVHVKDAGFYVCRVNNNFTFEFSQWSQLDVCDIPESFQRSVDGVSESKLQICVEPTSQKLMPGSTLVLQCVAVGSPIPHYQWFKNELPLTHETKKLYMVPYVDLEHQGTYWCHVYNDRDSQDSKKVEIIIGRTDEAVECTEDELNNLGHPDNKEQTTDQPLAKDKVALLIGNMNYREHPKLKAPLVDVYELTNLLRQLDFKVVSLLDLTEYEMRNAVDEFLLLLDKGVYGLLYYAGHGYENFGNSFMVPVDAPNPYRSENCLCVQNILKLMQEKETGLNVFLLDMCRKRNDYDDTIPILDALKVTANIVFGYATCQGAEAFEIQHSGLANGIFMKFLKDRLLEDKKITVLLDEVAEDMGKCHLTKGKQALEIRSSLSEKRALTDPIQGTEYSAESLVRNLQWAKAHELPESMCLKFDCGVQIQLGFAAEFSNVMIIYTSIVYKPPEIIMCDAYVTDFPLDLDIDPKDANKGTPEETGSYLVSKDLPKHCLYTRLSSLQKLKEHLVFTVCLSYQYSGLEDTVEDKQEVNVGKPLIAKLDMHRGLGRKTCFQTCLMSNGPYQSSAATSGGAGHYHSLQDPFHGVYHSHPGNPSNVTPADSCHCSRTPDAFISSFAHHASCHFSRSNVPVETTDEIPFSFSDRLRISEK
Put plainly: MALT1 protease assay, Assay 1 (2 nM MALT1, Ac-LRSR-AMC substrate). It is filed as biochemical. The following applies: 2 nM MALT1, 50 μM Ac-LRSR-AMC, 2 h pre-incubation, 8 hr incubation at RT. The method, then: MALT1 protease activity was assessed in an in vitro assay using a tetrapeptide as substrate and full-length MALT1 protein His-MALT1(1-824) purified from baculovirus-infected insect cells. The tetrapeptide substrate is Ac-LRSR-AMC (SM Biochemicals) with Km measured at around 100 μM.
The final assay buffer includes 1 nM (Assay 2) or 2 nM (Assay 1) of MALT1 full-length protein, 50 μM Ac-LRSR-AMC substrate, 50 mM Tris pH 7.5, 600 mM Sodium Citrate, 1 mM DTT, 1 mM EDTA, and 0.05% BSA in 384-well plate format using black microtiter square well plates (Optiplate 384-F, Perkin Elmer).
Test compounds were dissolved in 100% DMSO at stock of 10 mM, with final DMSO concentration 0.1%. Test compounds were pre-incubated with MALT1 protein for 2 h at room temperature. Substrate was added after the pre-incubation and fluorescence signal was measured using Envision at excitation 355 nm and emission 460 nm after 8 hr incubation at RT. Increase in the assay signal was linear over this period and proportional with increase in the enzyme content.
The fluorescence units were transformed to percentage of remaining activity by using the high control (HC, median of fluorescence signal from wells containing MALT1 protein, substrate, and DMSO) and low control (LC, median of fluorescence signal from wells with substrate only) with the formula below: […]
IC50 and Hill coefficients were obtained using Graph Pad Prism (Graph Pad software, Inc, USA) with non-linear regression analysis.

`C[C@@]1(C(F)(F)F)C[C@@H](C(=O)Nc2cnc(-n3nccn3)c(Cl)c2)c2cnc3cc(Cl)nn3c21` (single isomer, unassigned) [Example 39, 2-chloro-N-(5-chloro-6-(2H-1,2,3-triazol-2-yl)pyridin-3-yl)-8-methyl-8-(trifluoromethyl)-7,8-dihydro-6H-cyclopenta[e]pyrazolo[1,5-a]pyrimidine-6-carboxamide] showed an IC50 of 10 to 100 nM.
For `CC1(C)CC(C(=O)Nc2cnc(-n3nccn3)c(Cl)c2)c2cnc3cc(Cl)nn3c21` (single isomer, unassigned) [Example 1, 2-chloro-N-(5-chloro-6-(2H-1,2,3-triazol-2-yl)pyridin-3-yl)-8,8-dimethyl-7,8-dihydro-6H-cyclopenta[e]pyrazolo[1,5-a]pyrimidine-6-carboxamide] the value was 100 to 1000 nM.
The value for `CC(C)(O)c1cnn(-c2ncc(NC(=O)C3CC(C)(C)c4c3cnc3cc(Cl)nn43)cc2Cl)n1` (single isomer, unassigned) [Example 22, 2-chloro-N-(5-chloro-6-(4-(2-hydroxypropan-2-yl)-2H-1,2,3-triazol-2-yl)pyridin-3-yl)-8,8-dimethyl-7,8-dihydro-6H-cyclopenta[e]pyrazolo[1,5-a]pyrimidine-6-carboxamide] was 100 to 1000 nM.
Consider `Cn1ccc(-c2ncc(NC(=O)[C@@H]3CC(C)(C)c4c3cnc3cc(Cl)nn43)cc2Cl)n1` (single isomer, unassigned) [Example 10, 2-chloro-N-(5-chloro-6-(1-methyl-1H-pyrazol-3-yl)pyridin-3-yl)-8,8-dimethyl-7,8-dihydro-6H-cyclopenta[e]pyrazolo[1,5-a]pyrimidine-6-carboxamide], for which the IC50 is ≥ 1000 nM.
The value for `CC1(C)c2c(cnc3cc(Cl)nn23)C(C(=O)Nc2cnc(-n3nccn3)c(Cl)c2)C1O` (racemic) [Example 19, 2-chloro-N-(5-chloro-6-(2H-1,2,3-triazol-2-yl)pyridin-3-yl)-7-hydroxy-8,8-dimethyl-7,8-dihydro-6H-cyclopenta[e]pyrazolo[1,5-a]pyrimidine-6-carboxamide] was 100 to 1000 nM.
The value for `CC1(C)C[C@@H](C(=O)Nc2cnc(-n3nccn3)c(Cl)c2)c2cnc3cc(C(F)F)nn3c21` (single isomer, unassigned) [Example 24, N-(5-chloro-6-(2H-1,2,3-triazol-2-yl)pyridin-3-yl)-2-(difluoromethyl)-8,8-dimethyl-7,8-dihydro-6H-cyclopenta[e]pyrazolo[1,5-a]pyrimidine-6-carboxamide] was ≥ 1000 nM; that for `Cc1cc2ncc3c(n2n1)C(C)(C)C[C@H]3C(=O)Nc1cnc(-n2nccn2)c(Cl)c1` (single isomer, unassigned) [Example 5, N-(5-chloro-6-(2H-1,2,3-triazol-2-yl)pyridin-3-yl)-2,8,8-trimethyl-7,8-dihydro-6H-cyclopenta[e]pyrazolo[1,5-a]pyrimidine-6-carboxamide] was ≥ 1000 nM.
The value for `CC1(C)C[C@@H](C(=O)Nc2cnc(-n3ncc(CO)n3)c(Cl)c2)c2cnc3cc(Cl)nn3c21` (single isomer, unassigned) [Example 30, 2-chloro-N-(5-chloro-6-(4-(hydroxymethyl)-2H-1,2,3-triazol-2-yl)pyridin-3-yl)-8,8-dimethyl-7,8-dihydro-6H-cyclopenta[e]pyrazolo[1,5-a]pyrimidine-6-carboxamide] was ≥ 1000 nM; that for `Cn1nc(-c2ncc(NC(=O)C3CC(C)(C)c4c3cnc3cc(Cl)nn43)cc2Cl)cc1O` (stereo not drawn) [Example 42, 2-chloro-N-(5-chloro-6-(5-hydroxy-1-methyl-1H-pyrazol-3-yl)pyridin-3-yl)-8,8-dimethyl-7,8-dihydro-6H-cyclopenta[e]pyrazolo[1,5-a]pyrimidine-6-carboxamide] was ≥ 1000 nM; that for `CC1(C)C[C@@H](C(=O)Nc2cnc(N3CCCC3)c(Cl)c2)c2cnc3cc(Cl)nn3c21` (single isomer, unassigned) [Example 16, 2-chloro-N-(5-chloro-6-(pyrrolidin-1-yl)pyridin-3-yl)-8,8-dimethyl-7,8-dihydro-6H-cyclopenta[e]pyrazolo[1,5-a]pyrimidine-6-carboxamide] was ≥ 1000 nM.
`Cc1cc2ncc3c(n2n1)C1(CC1)CC3C(=O)Nc1cnc(-n2nccn2)c(Cl)c1` (stereo not drawn) [Example 18, N-(5-chloro-6-(2H-1,2,3-triazol-2-yl)pyridin-3-yl)-2-methyl-6,7-dihydrospiro[cyclopenta[e]pyrazolo[1,5-a]pyrimidine-8,1′-cyclopropane]-6-carboxamide] gave an IC50 of 100 to 1000 nM.
The value for `CC1(C)CCC(C(=O)Nc2cnc(-n3nccn3)c(Cl)c2)c2cnc3cc(Cl)nn3c21` (stereo not drawn) [Example 7, 2-chloro-N-(5-chloro-6-(2H-1,2,3-triazol-2-yl)pyridin-3-yl)-9,9-dimethyl-6,7,8,9-tetrahydropyrazolo[1,5-a]quinazoline-6-carboxamide] was 10 to 100 nM; that for `CC1(C)C[C@@H](C(=O)Nc2cnc(-n3nccn3)c(Cl)c2)c2cnc3cc(F)nn3c21` (single isomer, unassigned) [Example 32, N-(5-chloro-6-(2H-1,2,3-triazol-2-yl)pyridin-3-yl)-2-fluoro-8,8-dimethyl-7,8-dihydro-6H-cyclopenta[e]pyrazolo[1,5-a]pyrimidine-6-carboxamide] was ≥ 1000 nM; that for `CC1(C)C[C@@H](C(=O)Nc2cnc(-n3nccn3)c(Cl)c2)c2cnc3cc(C#N)nn3c21` (single isomer, unassigned) [Example 3, N-(5-chloro-6-(2H-1,2,3-triazol-2-yl)pyridin-3-yl)-2-cyano-8,8-dimethyl-7,8-dihydro-6H-cyclopenta[e]pyrazolo[1,5-a]pyrimidine-6-carboxamide] was ≥ 1000 nM.
The value for `Cn1cnc(-c2ncc(NC(=O)[C@@H]3CC(C)(C)c4c3cnc3cc(Cl)nn43)cc2Cl)c1` (single isomer, unassigned) [Example 34, 2-chloro-N-(5-chloro-6-(1-methyl-1H-imidazol-4-yl)pyridin-3-yl)-8,8-dimethyl-7,8-dihydro-6H-cyclopenta[e]pyrazolo[1,5-a]pyrimidine-6-carboxamide] was ≥ 1000 nM; that for `CC1(C)CC(C(=O)Nc2cnc(-n3cc(C#N)cn3)c(Cl)c2)c2cnc3cc(Cl)nn3c21` (single isomer, unassigned) [Example 15, 2-chloro-N-(5-chloro-6-(4-cyano-1H-pyrazol-1-yl)pyridin-3-yl)-8,8-dimethyl-7,8-dihydro-6H-cyclopenta[e]pyrazolo[1,5-a]pyrimidine-6-carboxamide] was 100 to 1000 nM.
For `CC1(C)C[C@@H](C(=O)Nc2cnc(-n3cc(C#N)cn3)c(Cl)c2)c2cnc3cc(Cl)nn3c21` (single isomer, unassigned) [Example 14, 2-chloro-N-(5-chloro-6-(4-cyano-1H-pyrazol-1-yl)pyridin-3-yl)-8,8-dimethyl-7,8-dihydro-6H-cyclopenta[e]pyrazolo[1,5-a]pyrimidine-6-carboxamide] the value was ≥ 1000 nM; for `CC1(C)CC(C(=O)Nc2cnc(-n3nccn3)c(Cl)c2)c2cnc3cc(C(F)(F)F)nn3c21` (stereo not drawn) [Example 40, N-(5-chloro-6-(2H-1,2,3-triazol-2-yl)pyridin-3-yl)-8,8-dimethyl-2-(trifluoromethyl)-7,8-dihydro-6H-cyclopenta[e]pyrazolo[1,5-a]pyrimidine-6-carboxamide], 10 to 100 nM.
